Measured values from publication PMC5115179 (Pharmacology Research & Perspectives, 2016).

Legend:
[1] = system: monocarboxylate transporter 1 (MCT1); design: method as in Tamai et al. 1999; Wang and Morris 2007; conditions: ref Tamai et al. 1999; Wang and Morris 2007; cited from earlier work
[2] = Excretion of NCS‐382 in urine and feces (metabolic cages); type: in vivo; conditions: mouse, reanalyzed samples of study 1
Procedure: To ensure sufficient volumes of urine could be collected in each of the 2 h time intervals (baseline, 0–2, 2–4, 4–6, 6–8 h), three mice were dosed simultaneously and their urine and feces pooled for analysis. The total dose in μg administered to the three animals was therefore used to calculate the percent of the dose excreted in the urine pooled from all three mice. Animals were allowed ad libitum access to food and water of which the intake of each was monitored.
Samples (3 μL) were injected onto a Kinetex PFP (50 × 2.1 mm, 1.7 μm particle size) UPLC column and eluted with a binary gradient consisting of water with 0.1% formic acid (mobile phase A) and methanol with 0.1% formic acid (mobile phase B). […] Eluent was directed to waste for the initial 0.4 min then to an ABI Sciex 6500 Qtrap tandem mass spectrometer. […] Where necessary, samples were diluted in blank matrices for analysis.
Pharmacokinetic outcomes were obtained via standard noncompartmental methods using Kinetica (version 5.1, Thermo Fisher Scientific, Waltham, MA). The maximum concentration (C max) was obtained directly from the concentration–time profiles. Area under the concentration–time curve (AUC) from time zero to the last collected time point was determined using the trapezoidal method with linear up/log down interpolation.

[3] = NCS‐382–diclofenac interaction study (inhibition of NCS‐382 glucuronidation); conditions: mouse; for AUC(0-t): both, in vivo, 25 mg/kg
UGT2B7 = system: UGT2B7; design: method as in Miners et al. 1997; Ammon et al. 2000; King et al. 2001; conditions: ref Miners et al. 1997; Ammon et al. 2000; King et al. 2001; cited from earlier work
[4] = system: gamma‐butyrolactone‐treated mice; experiment: GBL‐mediated response protection by NCS‐382 in the absence and presence of diclofenac; type: in vivo; conditions: mouse; given alone i.p. (NCS‐382 300 mg/kg or diclofenac 25 mg/kg) 30 min before GBL 100 mg/kg i.p.
GHB binding sites = system: GHB binding sites; design: method as in Wellendorph et al. 2009; conditions: ref Wellendorph et al. 2009; cited from earlier work
UGT1A9 = system: UGT1A9; design: method as in Miners et al. 1997; Ammon et al. 2000; King et al. 2001; conditions: ref Miners et al. 1997; Ammon et al. 2000; King et al. 2001; cited from earlier work
[5] = treatment NCS‐382 300 mg/kg + Diclofenac 25 mg/kg
[6] = treatment NCS‐382 300 mg/kg alone
[7] = treatment Diclofenac 25 mg/kg alone

O=C(O)CCCO [GHB, gamma‐hydroxybutyric acid]
Km [1]: 4.6 to 7.7 mM

O=C(O)/C=C1\CCCc2ccccc2C1=O [NCS dehydrogenation]
detection of NCS‐382 metabolites in urine and feces [2]: found in neither | Sera AUC0–2 h [90% CI], relative quantification (peak area ratio) [3, 5]: 2.72 [2.26–3.18] ^a PAR*h | Sera AUC0–2 h [90% CI], relative quantification (peak area ratio) [3, 6]: 1.99 [1.82–2.16] PAR*h

O=C(Cc1ccccc1Nc1c(Cl)cccc1Cl)O[C@@H]1O[C@H](C(=O)O)[C@@H](O)[C@H](O)[C@H]1O [Diclofenac glucuronide]
Brain AUC0–2 h [90% CI], relative quantification (peak area ratio) [3, 7]: 5.87 [4.46–7.28] PAR*h | Sera AUC0–2 h [90% CI], relative quantification (peak area ratio) [3, 7]: 8.57 [6.09–11.04] PAR*h | Brain AUC0–2 h [90% CI], relative quantification (peak area ratio) [3, 5]: 3.96 [3.25–4.67] PAR*h | Sera AUC0–2 h [90% CI], relative quantification (peak area ratio) [3, 5]: 4.67 [4.21–5.13] ^a PAR*h

O=C(O)Cc1ccccc1Nc1c(Cl)cccc1Cl [Diclofenac]
Ki (UGT2B7): […] | time to loss of motor function compared to vehicle control [4]: did not have a measureable effect | binding to GHB binding sites in rat brain (GHB binding sites): ligand for the GHB binding sites in rat brain | Ki (UGT1A9): 11 µM | AUC(0-t) [3]: 232 µM·h | Brain AUC0–2 h [90% CI] [3, 7]: 33.8 [28.2–39.4] nmol/g/tissue*h | Brain AUC0–2 h [90% CI] [3, 5]: 44.9 [39.5–50.3] ^a nmol/g/tissue*h

O=C(O)Cc1cc(O)ccc1Nc1c(Cl)cccc1Cl [5‐OH‐Diclofenac, 5‐hydroxydiclofenac]
AUC(0-t) [3]: 61.3 µM·h | Brain AUC0–2 h [90% CI] [3, 7]: 4.60 [4.55–4.65] nmol g/tissue*h | Brain AUC0–2 h [90% CI] [3, 5]: 5.20 [4.77–5.62] ^a nmol g/tissue*h

O=C(O)Cc1ccccc1Nc1c(Cl)cc(O)cc1Cl [4‐OH‐Diclofenac, 4′‐hydroxydiclofenac]
Sera AUC0–2 h [90% CI], relative quantification (peak area ratio) [3, 7]: 6.76 [5.18–8.33] PAR*h | Sera AUC0–2 h [90% CI], relative quantification (peak area ratio) [3, 5]: 8.28 [7.60–8.97] PAR*h

O=C(O)/C=C1\CCCc2ccccc2C1O[C@@H]1O[C@H](C(=O)O)[C@@H](O)[C@H](O)[C@H]1O (stereo partly shown) [NCS‐Glucuronide]
detection of NCS‐382 metabolites in urine and feces [2]: detectable in both the urine and feces | Brain AUC0–2 h [90% CI], relative quantification (peak area ratio) [3, 5]: 4.58 [3.61–5.55] PAR*h | Sera AUC0–2 h [90% CI], relative quantification (peak area ratio) [3, 5]: 2.86 [2.55–3.18] PAR*h | Brain AUC0–2 h [90% CI], relative quantification (peak area ratio) [3, 6]: 3.28 [2.53–4.03] PAR*h | Sera AUC0–2 h [90% CI], relative quantification (peak area ratio) [3, 6]: 3.65 [2.65–4.65] PAR*h
